Experimental data: patent US6361805B1, “Method of preparation and composition of a water soluble extract of the plant species uncaria for enhancing immune, anti-inflammatory, anti-tumor and DNA repair processes of warm blooded animals” (priority 1997, dated 2002)

Tested on: HL-60 cells
Assay: Induction of apoptosis, scored by phase contrast morphological criteria
Type: cell-based, human
Conditions: HL-60, 100 μM hydrogen peroxide positive control, 0-72 hours
Method: FIG. 2. Time course of apoptosis in HL-60 cells induced by C-MED-100 extract (Example 1) as compared to negative (no treatment) or positive (100 μM H2O2 exposure) controls.
For the purpose of evaluating apoptosis in vitro, human leukemic HL-60 cells were cultured at a density of 0.5×10^6 cells per milliliter in 10% calf serum supplemented RPMI medium in a 5% CO2 atmosphere at 37° C. for 48 hours. The cells were harvested by centrifugation and resuspended in a fresh medium at a concentration of 1-2×10^6 cells per milliliter in 15 milliliter Falcon test tubes for bioassay purposes. Next the cells were exposed to either 100 μM hydrogen peroxide as a positive control or 397 μg per milliliter C-Med-100 extract prepared according to Example 1 or no exposure for 0-72 hours at 37° C. Samples of cells were taken from the cultures at the time periods indicated in FIG. 2 and the % apoptosis in the total cells counted were analyzed and scored by phase contrast morphological criteria.

## OO [Hydrogen peroxide]
  apoptotic cells over time: massive cell death by apoptosis within 24 hours
